{"source": "patent US7384959B2", "about": "“Treatment of convulsive states” (priority 1999, dated 2008)", "format_in_all_cases": "in vivo", "key": {"mouse": {"system": "mouse", "test": "liver damage (plasma alanine aminotransferase, microscopic examination for hepatic necrosis)", "procedure": "At very high doses, some inhibition of cytochrome P450 sub-types C8/9, 2C18/19 and 2D6 was found, but the concentrations required to inhibit enzyme activities (100 μM) were much greater than the maximum concentrations likely to be found in vivo and are therefore not likely to be clinically relevant."}, "rat [1]": {"system": "rat", "test": "barbital interaction (sleep induction) test", "conditions": "for NUMBER OF RATS SLEEPING: 10 rats per group; for SLEEP DURATION mean ± s.e.m.: maximum 6 hours after barbital injection", "excerpt": "(§1) The following Tables report the results of the Irwin, PTZ and barbital interaction (sleep induction) tests. Description of these tests may be found in Psychopharmacologica, 13:222-257 (1968), Krall et al, Epilepsia 19:409-428 (1978), and Simon et al, J. Pharmacol, Paris 13:241-252 (1982). See also Roux et al, Phoenix international Pharmacology Reports Nos. D30.2061/2 and D99.021/2.\nIn Table 3, the following apply: Student's t Test: NS=Not Significant; *=p<0.05; **=p<0.01; ***=<0.001 Fisher's Exact Test: (number of rats sleeping) No indication=Not Significant; +=p<0.05; ++=p<0.01; +++=p<0.001 • (#): maximum=6 hours after barbital injection (taken 50 minutes after barbital injection)."}, "rat [2]": {"system": "rat", "test": "Pentylenetetrazole (PTZ) Seizure Test", "conditions": "for NUMBER OF CLONIC CONVULSIONS number of rats / NUMBER OF DEATHS number of rats / NUMBER OF TONIC CONVULSIONS number of rats: 10 rats per group; for NUMBER OF CLONIC CONVULSIONS number of rats / NUMBER OF DEATHS number of rats / NUMBER OF TONIC CONVULSIONS number of rats / NUMBER OF CLONIC CONVULSIONS % antagonism / NUMBER OF DEATHS % antagonism / NUMBER OF TONIC CONVULSIONS % antagonism: observed during 60 minutes; for LATENCY TO CLONIC CONVULSIONS % change from control / LATENCY TO CLONIC CONVULSIONS mean ± s.e.m. / LATENCY TO DEATHS % change from control / LATENCY TO DEATHS mean ± sem. / LATENCY TO TONIC CONVULSIONS % change from control / LATENCY TO TONIC CONVULSIONS mean ± sem.: rat", "excerpt": "as §1\nTable 2a reports mean results based on animals showing the symptoms (minimum=3 animals). Table 2b reports results observed during 60 minutes. In these Tables: Student's t Test: NS=Not Significant; *=p<0.05; ** p<0.01; ***=p<0.001 Fisher's Exact Test: No indication=Not Significant; **=p<0.01; ***=p<0.001"}}, "note": "Marks after values point to notes of the source that are not given here."}
{"smiles": "COC(=O)[C@@H](c1ccccc1)[C@@H]1CCCCN1", "note": "[l-MPH, l-threo-Methylphenidate]", "values": [{"measurement": "liver damage as assessed by increased plasma level of alanine aminotransferase and microscopic examination for hepatic necrosis", "setting": "mouse", "result": "not to be linked with liver damage"}, {"measurement": "SLEEP DURATION % change from control", "setting": "rat [1]; 0.5 mg/kg s.c. −30 min", "result": "+3%"}, {"measurement": "NUMBER OF RATS SLEEPING", "setting": "rat [1]; 0.5 mg/kg s.c. −30 min", "result": 9}, {"measurement": "SLEEP DURATION mean ± s.e.m.", "setting": "rat [1]; 0.5 mg/kg s.c. −30 min", "result": "63.8 ± 18.5", "unit": "NS min"}, {"measurement": "SLEEP DURATION % change from control", "setting": "rat [1]; 2 mg/kg s.c. −30 min", "result": "−85", "unit": "%"}, {"measurement": "NUMBER OF RATS SLEEPING", "setting": "rat [1]; 2 mg/kg s.c. −30 min", "result": "4 +"}, {"measurement": "SLEEP DURATION mean ± s.e.m.", "setting": "rat [1]; 2 mg/kg s.c. −30 min", "result": "9.5 ± 6.4** min"}, {"measurement": "SLEEP DURATION % change from control", "setting": "rat [1]; 4 mg/kg s.c. −30 min", "result": "−93", "unit": "%"}, {"measurement": "NUMBER OF RATS SLEEPING", "setting": "rat [1]; 4 mg/kg s.c. −30 min", "result": 6}, {"measurement": "SLEEP DURATION mean ± s.e.m.", "setting": "rat [1]; 4 mg/kg s.c. −30 min", "result": "4.3 ± 2.3*** min"}, {"measurement": "SLEEP DURATION % change from control", "setting": "rat [1]; 8 mg/kg s.c. −30 min", "result": "−79", "unit": "%"}, {"measurement": "NUMBER OF RATS SLEEPING", "setting": "rat [1]; 8 mg/kg s.c. −30 min", "result": "1 +++"}, {"measurement": "SLEEP DURATION mean ± s.e.m.", "setting": "rat [1]; 8 mg/kg s.c. −30 min", "result": "13.3 ± 13.3", "unit": "min"}, {"measurement": "effect on barbital-induced sleep", "setting": "rat [1]; rat, in vivo", "result": "antagonise barbital-induced sleep"}, {"measurement": "NUMBER OF CLONIC CONVULSIONS number of rats", "setting": "rat [2]; 8 mg/kg s.c. −30 min", "result": 10}, {"measurement": "NUMBER OF DEATHS number of rats", "setting": "rat [2]; 8 mg/kg s.c. −30 min", "result": 10}, {"measurement": "NUMBER OF TONIC CONVULSIONS number of rats", "setting": "rat [2]; 8 mg/kg s.c. −30 min", "result": 10}, {"measurement": "NUMBER OF CLONIC CONVULSIONS % antagonism", "setting": "rat [2]; 8 mg/kg s.c. −30 min", "result": 0, "unit": "%"}, {"measurement": "NUMBER OF DEATHS % antagonism", "setting": "rat [2]; 8 mg/kg s.c. −30 min", "result": 0, "unit": "%"}, {"measurement": "NUMBER OF TONIC CONVULSIONS % antagonism", "setting": "rat [2]; 8 mg/kg s.c. −30 min", "result": 0, "unit": "%"}, {"measurement": "LATENCY TO CLONIC CONVULSIONS % change from control", "setting": "rat [2]; 8 mg/kg s.c. −30 min", "result": "+38%"}, {"measurement": "LATENCY TO CLONIC CONVULSIONS mean ± s.e.m.", "setting": "rat [2]; 8 mg/kg s.c. −30 min", "result": "756.0 ± 105.0", "unit": "NS sec"}, {"measurement": "LATENCY TO DEATHS % change from control", "setting": "rat [2]; 8 mg/kg s.c. −30 min", "result": "+20%"}, {"measurement": "LATENCY TO DEATHS mean ± sem.", "setting": "rat [2]; 8 mg/kg s.c. −30 min", "result": "1566.1 ± 199.9", "unit": "NS sec"}, {"measurement": "LATENCY TO TONIC CONVULSIONS % change from control", "setting": "rat [2]; 8 mg/kg s.c. −30 min", "result": "+23%"}, {"measurement": "LATENCY TO TONIC CONVULSIONS mean ± sem.", "setting": "rat [2]; 8 mg/kg s.c. −30 min", "result": "1443.0 ± 198.2", "unit": "NS sec"}, {"measurement": "NUMBER OF CLONIC CONVULSIONS number of rats", "setting": "rat [2]; 16 mg/kg s.c. −30 min", "result": 9}, {"measurement": "NUMBER OF DEATHS number of rats", "setting": "rat [2]; 16 mg/kg s.c. −30 min", "result": 7}, {"measurement": "NUMBER OF TONIC CONVULSIONS number of rats", "setting": "rat [2]; 16 mg/kg s.c. −30 min", "result": 8}, {"measurement": "NUMBER OF CLONIC CONVULSIONS % antagonism", "setting": "rat [2]; 16 mg/kg s.c. −30 min", "result": 10, "unit": "%"}, {"measurement": "NUMBER OF DEATHS % antagonism", "setting": "rat [2]; 16 mg/kg s.c. −30 min", "result": 30, "unit": "%"}, {"measurement": "NUMBER OF TONIC CONVULSIONS % antagonism", "setting": "rat [2]; 16 mg/kg s.c. −30 min", "result": 20, "unit": "%"}, {"measurement": "LATENCY TO CLONIC CONVULSIONS % change from control", "setting": "rat [2]; 16 mg/kg s.c. −30 min", "result": "+99%"}, {"measurement": "LATENCY TO CLONIC CONVULSIONS mean ± s.e.m.", "setting": "rat [2]; 16 mg/kg s.c. −30 min", "result": "1086.7 ± 213.6* sec"}, {"measurement": "LATENCY TO DEATHS % change from control", "setting": "rat [2]; 16 mg/kg s.c. −30 min", "result": "+35%"}, {"measurement": "LATENCY TO DEATHS mean ± sem.", "setting": "rat [2]; 16 mg/kg s.c. −30 min", "result": "1757.1 ± 209.8* sec"}, {"measurement": "LATENCY TO TONIC CONVULSIONS % change from control", "setting": "rat [2]; 16 mg/kg s.c. −30 min", "result": "+53%"}, {"measurement": "LATENCY TO TONIC CONVULSIONS mean ± sem.", "setting": "rat [2]; 16 mg/kg s.c. −30 min", "result": "1785.0 ± 292.2* sec"}, {"measurement": "NUMBER OF CLONIC CONVULSIONS number of rats", "setting": "rat [2]; 32 mg/kg s.c. −30 min", "result": 10}, {"measurement": "NUMBER OF DEATHS number of rats", "setting": "rat [2]; 32 mg/kg s.c. −30 min", "result": "3++"}]}
